Consider eight compounds from patent US9499492B2, “4-(ortho)-fluorophenyl-5-fluoropyrimidin-2-yl amines containing a sulfoximine group” (BAYER PHARMA AKTIENGESELLSCHAFT, priority 2012, dated 2016).

Data set [1] concerns MOLM-13 human acute myeloid leukemia cells. The data set is described as follows: Proliferation assay, MOLM-13 (Cell Titre-Glo, Method 3). The class given is cell-based. The settings on record: MOLM-13, 72-hour exposure, read-out: Inhibition of MOLM-13 cell proliferation IC50. As to the method:
Non-adherent MOLM-13 human acute myeloid leukemia cells (DSMZ ACC 554) were seeded at a density of 5,000 cells/well in a 96-well multititer plate in 100 μL of growth medium supplemented 10% fetal calf serum. After 24 hours, cell viability of one plate (zero-point plate) was determined with the Cell Titre-Glo Luminescent Cell Viability Assay (Promega), while 50 μL of test compound containing medium was added to the wells of the other plates (final concentrations in the range of 0.001-10 μM and DMSO controls; the final concentration of the solvent dimethyl sulfoxide was 0.5%). Cell viability was assessed after 72-hour exposure with the Cell Titre-Glo Luminescent Cell Viability Assay (Promega).

Data set [2] can be described thus: In vivo pharmacokinetics in rats (Method 6). The settings on record: male, Wistar, plasma; rat, iv dosing; read-out: t1/2: terminal half-life from in vivo rat study (converted). The method, then: 6. In Vivo Pharmacokinetics in Rats
For in vivo pharmacokinetic experiments test compounds were administered to male Wistar rats intravenously at doses of 0.3 to 1 mg/kg formulated as solutions using either rat plasma or solubilizers such as PEG400 in well-tolerated amounts.
For pharmacokinetics after intravenous administration test compounds were given as i.v. bolus and blood samples were taken at 2 min, 8 min, 15 min, 30 min, 45 min, 1 h, 2 h, 4 h, 6 h, 8 h and 24 h after dosing. […] Blood was collected into Lithium-Heparin tubes (Monovetten®, Sarstedt) and centrifuged for 15 min at 3000 rpm. An aliquot of 100 μL from the supernatant (plasma) was taken and precipitated by addition of 400 μL icecold acetonitril and frozen at −20° C. over night. Samples were subsequently thawed and centrifuged at 3000 rpm, 4° C. for 20 minutes. Aliquots of the supernatants were taken for analytical testing using an Agilent 1200 HPLC-system with LCMS/MS detection. PK parameters were calculated by non-compartmental analysis using a PK calculation software.
PK parameters derived from concentration-time profiles after i.v.: CLplasma: Total plasma clearance of test compound (in L/kg/h); CLblood: Total blood clearance of test compound: CLplasma*Cp/Cb (in L/kg/h) with Cp/Cb being the ratio of concentrations in plasma and blood, AUCnorm: Area under the concentration-time curve from t=0 h to infinity (extrapolated) divided by the administered dose (in kg*h/L); t½: terminal half-life (in h).

The target in data set [3] is human carbonic anhydrase-1 (Homo sapiens (Human), UniProt P00915). The data set is described as follows: Carbonic anhydrase assay, carbonic anhydrase-1 (Method 4). The class given is biochemical. As to conditions: read-out: Inhibition of Carbonic anhydrase-1 IC50. As to the method: (§1) 4. Carbonic Anhydrase Assay
human carbonic anhydrase-1, sequence (P00915 whole entry): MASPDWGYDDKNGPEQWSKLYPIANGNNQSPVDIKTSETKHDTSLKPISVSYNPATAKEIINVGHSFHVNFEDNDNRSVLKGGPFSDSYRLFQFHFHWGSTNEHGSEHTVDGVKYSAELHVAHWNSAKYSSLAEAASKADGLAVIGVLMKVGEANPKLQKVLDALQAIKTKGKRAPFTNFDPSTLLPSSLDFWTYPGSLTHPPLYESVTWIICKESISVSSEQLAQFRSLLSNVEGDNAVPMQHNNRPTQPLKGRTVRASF
(§2) 2 μL of the test compounds, dissolved in DMSO (100-fold final concentration), in a concentration range of 0.03-10 μmol/L (final), was pipetted as quadruplicates into the wells of a 96-hole microtiter plate. Wells that contained the solvent without test compounds were used as reference values (1. Wells without carbonic anhydrase for correction of the non-enzymatic hydrolysis of the substrate, and 2. Wells with carbonic anhydrase for determining the activity of the non-inhibited enzyme).
(§3) 188 μL of assay buffer (10 mmol/L of Tris/HCl, pH 7.4, 80 mmol/L of NaCl), with or without 3 units/well of carbonic anhydrase-1 [=human carbonic anhydrase-1 (Sigma, #C4396)] in order to determine carbonic anhydrase-1 inhibition or 3 units/well of carbonic anhydrase-2 [=human carbonic anhydrase-2 (Sigma, #C6165)] for measuring carbonic anhydrase-2 inhibition, was pipetted into the wells of the microtiter plate.

Data set [4] concerns the target human carbonic anhydrase-2 (Homo sapiens (Human), UniProt P00918). The data set is described as follows: Carbonic anhydrase assay, carbonic anhydrase-2 (Method 4). The data set is classed as biochemical. As to conditions: read-out: Inhibition of Carbonic anhydrase-2 IC50. The method, then: as §1
The principle of the assay is based on the hydrolysis of 4-nitrophenyl acetate by carbonic anhydrases (Pocker & Stone, Biochemistry, 1967, 6, 668), with subsequent photometric determination of the dye product 4-nitrophenolate at 400 nm by means of a 96-channel spectral photometer.
as §2, §3

Like-named read-outs stand apart in the source and are kept apart here.

With `CS(=N)(=O)Cc1cc(Nc2ncc(F)c(-c3ccc(F)cc3F)n2)cc(S(F)(F)(F)(F)F)c1` (single isomer, unassigned) [Example 32, 4-(2,4-Difluorophenyl)-5-fluoro-N-{3-[(S-methylsulfonimidoyl)methyl]-5-(pentafluoro-λ^6-sulfanyl)phenyl}pyrimidin-2-amine], in data set [1], the IC50 was found to be 0.165 µM. Also, in data set [2], the half-life is 15 h.
Consider `CS(=O)(Cc1cc(Nc2ncc(F)c(-c3ccc(F)cc3F)n2)cc(S(F)(F)(F)(F)F)c1)=NC(N)=O` (single isomer, unassigned) [Example 33, 1-{[3-{[4-(2,4-Difluorophenyl)-5-fluoropyrimidin-2-yl]amino}-5-(pentafluoro-λ^6-sulfanyl)benzyl](methyl)oxido-λ^6-sulfanylidene}urea], for which the IC50 in data set [1] stood at 0.2 µM.
In the case of `CS(=O)(Cc1cc(Nc2ncc(F)c(-c3ccc(F)cc3F)n2)cc(C(F)(F)F)c1)=NC#N` (single isomer, unassigned) [Example 2, {[3-{[4-(2,4-Difluorophenyl)-5-fluoropyrimidin-2-yl]amino}-5-(trifluoromethyl)benzyl](methyl)oxido-λ^6-sulfanylidene}cyanamide], in data set [2], the half-life was 4.3 h.
As for `CS(=O)(Cc1cc(Nc2ncc(F)c(-c3ccc(F)cc3F)n2)cc(S(F)(F)(F)(F)F)c1)=NC#N` (racemic) [Example 28, (rac)-{[3-{[4-(2,4-Difluorophenyl)-5-fluoropyrimidin-2-yl]amino}-5-(pentafluoro-λ^6-sulfanyl)benzyl](methyl)oxido-λ^6-sulfanylidene}cyanamide], the IC50 in data set [1] (Homo sapiens, MOLM-13, 72 h) was determined as 0.145 µM.
For the compound `CS(=N)(=O)Cc1cc(Nc2ncc(F)c(-c3ccc(F)cc3F)n2)cc(C(F)(F)F)c1` (racemic) [Example 4, (rac)-4-(2,4-Difluorophenyl)-5-fluoro-N-{3-[(S-methylsulfonimidoyl)methyl]-5-(trifluoromethyl)phenyl}pyrimidin-2-amine], the IC50 in data set [3] and in data set [4] was more than 10 µM each time. Besides, the half-life in data set [2] is 4.5 h.
Take `CS(=O)(Cc1cc(Nc2ncc(F)c(-c3ccc(F)cc3F)n2)cc(C(F)(F)F)c1)=NC(N)=O` (racemic) [Example 7, (rac)-1-{[3-{[4-(2,4-Difluorophenyl)-5-fluoropyrimidin-2-yl]amino}-5-(trifluoromethyl)benzyl](methyl)oxido-λ^6-sulfanylidene}urea]: the IC50 in data set [3] and in data set [4] was more than 10 µM throughout.
As to `CS(=N)(=O)Cc1cc(Cl)cc(Nc2ncc(F)c(-c3ccc(F)cc3F)n2)c1` (racemic) [Example 15, (rac)-N-{3-chloro-5-[(S-methylsulfonimidoyl)methyl]phenyl}-4-(2,4-difluorophenyl)-5-fluoropyrimidin-2-amine], the IC50 in data set [3] and in data set [4] was more than 10 µM throughout.
`CS(=O)(Cc1cc(Nc2ncc(F)c(-c3ccc(F)cc3F)n2)cc(C(F)(F)F)c1)=NC#N` (racemic) [Example 1, (rac)-{[3-{[4-(2,4-Difluorophenyl)-5-fluoropyrimidin-2-yl]amino}-5-(trifluoromethyl)benzyl](methyl)oxido-λ^6-sulfanylidene}cyanamide]: the IC50 in data set [3] and in data set [4] was more than 10 µM each time.
